Experimental data published in US20050137172A1, “Haloacetamide and azide substituted compounds and methods of use thereof” (priority 2003, published 2005).
Where two headings read alike, the source gives them in different places.

Columns and labels:
[1] = tested on: DU145; experiment: Cell growth inhibition (sulforhodamine B assay); type: cell-based; conditions: Homo sapiens, DU-145, 96 h, read-out: IC50 DU145
Experimental: (§1) Prostate cancer cell lines were obtained from ATCC. All cells were grown in RPMI-1640 medium containing 2 mM L-glutamine supplemented with 10% fetal bovine serum (FBS) and maintained in a 5% CO2/95% air humidified atmosphere at 37° C.
(§2) Cells were plated on 96-well plates and incubated with drug-containing culture medium (200 μL/well) for 4 (DU 145, PC-3, PPC-1, and TSU) or 6 (LNCaP) days. Medium was replaced with freshly prepared batches every other day during the incubation. At the end of drug treatment, an aliquot of 50 μL of cold (4° C.) trichloroacetic acid (TCA, 50%) was gently layered on the top of growth medium in each well to make a final TCA concentration of 10%. The mixtures were incubated at 4° C. for 1 hour, and then washed 5 times with tap water to remove TCA, growth medium, low-molecular-weight metabolites, and serum proteins. The plates were air dried overnight. Next, fixed cells were stained with 50 μL of SRB solution (0.4%, wt/vol) for 10 minutes. After staining, SRB solution was decanted, and plates were quickly rinsed 5 times with 1% acetic acid to remove unbound dye and air dried overnight. The cellular protein-bound SRB was then dissolved with 200 μL unbuffered Tris base (10 mM, pH 10.5) for 30 minutes on a rocking platform shaker, and absorbance at 540 nm was measured by a plate reader.
(§3) Percentage of cell survival was calculated by absorbance at 540 nm in testing wells divided by absorbance in negative control wells (medium without the test compound). Percentages of cell survival versus drug concentrations were plotted and the concentration of drug that inhibited cell growth by 50% (IC50) was determined by nonlinear regression using WinNonlin (Pharsight Corporation, Mountain View, Calif.).
(§4) METHODS: LNCaP, DU145, PC-3, TSU, and PPC-1 cells were cultured in 96-well plates and treated with increasing concentrations of the compound of interest for 4 days. Cell survival was determined by the sulforhodamine B assay and was plotted as a percentage of control (drug-free wells) versus drug concentration. The concentration of drug that inhibited cell growth by 50% (IC50) was determined by nonlinear regression. Known anticancer drugs were used as cytotoxic positive controls.

[2] = tested on: LNCaP; experiment: Cell growth inhibition (sulforhodamine B assay); type: cell-based; conditions: Homo sapiens, read-out: IC50 LNCaP
Experimental: as §1, §2, §3, §4

[3] = tested on: PC-3; experiment: Cell growth inhibition (sulforhodamine B assay); type: cell-based; conditions: Homo sapiens, PC-3, 96 h, read-out: IC50 PC-3
Experimental: as §1, §2, §3, §4

[4] = tested on: PPC-1; experiment: Cell growth inhibition (sulforhodamine B assay); type: cell-based; conditions: Homo sapiens, PPC-1, 96 h, read-out: IC50 PPC-1
Experimental: as §1, §2, §3, §4

[5] = tested on: TSU; experiment: Cell growth inhibition (sulforhodamine B assay); type: cell-based; conditions: Homo sapiens, 96 h, read-out: IC50 TSU
Experimental: as §1, §2, §3, §4

[6] = tested on: LNCaP cells; experiment: Growth curve (trypan blue cell count, 120 h); type: cell-based, human
Experimental: (§5) MATERIALS: DMSO is the vehicle control and the solvent for Compound A and Compound B.
(§6) METHODS: Cells were plated at 5-10×10^4 cells/well in five 6-well plates and incubated at 37° C., 5% CO2 for 24 h to allow the cells sufficient time to attach and be in log phase growth at the start of the experiment. The media was aspirated from four of the plates and replaced with media containing vehicle control (DMSO) or drug dissolved in DMSO. The total volume of DMSO/drug added to each well was equal to 0.1% of the media volume in each well. LNCaP, PC-3, MCF-7, and CV-1 cells were treated with vehicle control, and increasing concentrations of Compound A and Compound B (0.01, 0.05, 0.1, 0.5, 1.0, 5.0, and 10.0 μM). Three wells were treated with the same concentration of the drugs or DMSO for each treatment condition listed above. The cells from the remaining 6-well plate were collected and counted to determine plating efficiency. The 6-well plates containing DMSO/drug were incubated for 120 h at 37° C., 5% CO2. After 120 h, the media from each well was collected along with trypsinized cells and centrifuged at 150×g for 4 min. The cells were resuspended in 1 mL of media, from which 90 μl was taken and combined with 10 μl trypan blue for counting on a hemacytometer.

[7] = tested on: LNCaP cells; experiment: TUNEL assay (apoptosis, DNA fragmentation); type: cell-based, human; conditions: LNCaP cells exposed for 24 hours, relative to 0.1% DMSO vehicle control
Experimental: MATERIALS: In Situ Cell Death Detection Kit, Fluorescein (Roche).
METHODS: DNA fragmentation of apoptotic cells was monitored by the TUNEL assay as described by the supplier. Briefly, LNCaP cells were plated at 2×10^5 cells/well in 2-well chamber slides and incubated at 37° C., 5% CO2 for 24 h to allow the cells sufficient time to attach and be in log phase growth at the start of the experiment. The media was aspirated and replaced with media containing vehicle control (DMSO) or drug dissolved in DMSO. The total volume of DMSO/drug added to each well was equal to 0.1% of the media volume in each well. LNCaP cells were treated with vehicle control, and increasing concentrations of Compound A and Compound B ([…]) for 24-48 h. Two wells were treated with the same concentration of the drugs or DMSO for each treatment condition listed above. The media was collected along with the trypsinized cells and centrifuged at 150 ×g for 4 min. The cells were resuspended in 50 μl PBS, pipetted onto poly-lysine coated slides, and then fixed in 4% methanol-free formaldehyde in PBS (H 7.4) for 25 min at 4° C. Cells were permeabilized in 0.2% Triton X-100 in PBS for 5 min at room temperature. […] Green and red fluorescence emissions were observed microscopically using 520 nm and >620 nm filters, respectively.

[8] = tested on: five prostate cancer cell lines; experiment: Cell growth inhibition (sulforhodamine B assay), all five lines together; type: cell-based, human; conditions: for IC50 values in inhibiting the growth of all of five prostate cancer cell lines: DU 145, PC-3, TSU, PPC-1, LNCaP; for IC50s from one-day treatment versus 4 or 6 days treatment: comparison of treatment durations
Experimental: as §1, §2, §3, §4

[9] = tested on: MCF-7 cells; experiment: Growth curve (trypan blue cell count, 120 h); type: cell-based; conditions: FIG. 2B
Experimental: as §5, §6

[10] = sulforhodamine B assay, 4 days treatment
[11] = sulforhodamine B assay, 4 or 6 days treatment

SMILES | melting point [°C] | IC50 [1, 10] [nM] | IC50 [2, 11] [nM] | IC50 [3, 10] [µM] | IC50 [4, 10] [µM] | IC50 [5, 10] [nM] | other results
C[C@](O)(COc1ccc(NC(=O)C(F)(F)F)cc1)C(=O)Nc1ccc([N+](=O)[O-])c(C(F)(F)F)c1 | 58 to 60 | – | – | – | – | – | –
C[C@](O)(COc1ccc(NC(=O)CI)cc1)C(=O)Nc1ccc(C#N)c(C(F)(F)F)c1 (hydrate or solvate) | 78 to 80 | – | – | – | – | – | –
C[C@](O)(COc1ccc(NC(=O)C(Cl)(Cl)Cl)cc1)C(=O)Nc1ccc([N+](=O)[O-])c(C(F)(F)F)c1 (hydrate or solvate) | 59 to 61 | – | – | – | – | – | –
C[C@](O)(COc1ccc(N2C(=O)C=CC2=O)cc1)C(=O)Nc1ccc([N+](=O)[O-])c(C(F)(F)F)c1 (hydrate or solvate) | 82 to 84 | – | – | – | – | – | –
O=c1[nH]cc(F)c(=O)[nH]1 [Compound 5-FU, fluorouracil, reference compound] | – | 2600 ± 900 | 900 ± 300 | 12.1 ± 0.9 | 5.5 ± 0.3 | 2900 ± 900 | –
C[C@](O)(COc1ccc(NC(=O)CBr)cc1)C(=O)Nc1ccc([N+](=O)[O-])c(C(F)(F)F)c1 [Compound A] | – | 1300 ± 300 | 1100 ± 200 | 2.41 ± 0.6 | 1.1 ± 0.1 | 400 ± 300 | Growth inhibitory activity across cell lines (selectivity) ([6]; LNCaP versus PC-3, MCF-7 and CV-1 cells, FIG. 2A): non-selective growth inhibitory activity; Apoptosis (green fluorescence, fragmented DNA) in TUNEL assay [7]: exhibit green fluorescence; IC50 values in inhibiting the growth of all of five prostate cancer cell lines [8]: low micro-molar range; IC50s from one-day treatment versus 4 or 6 days treatment [8]: did not show significant difference
C[C@](O)(COc1ccc(NC(=O)CCl)cc1)C(=O)Nc1ccc([N+](=O)[O-])c(C(F)(F)F)c1 [Compound B] | – | 900 ± 100 | 4400 ± 800 | 4.2 ± 0.2 | 1.8 ± 0.1 | 1400 ± 400 | Sensitivity of LNCaP cells relative to PC-3 or CV-1 cells ([6]; growth curve, FIG. 2B): approximately 10 fold; Concentration at which MCF-7 cells are sensitive [9]: > 5 µM; Apoptosis (green fluorescence, fragmented DNA) in TUNEL assay [7]: similar; IC50 values in inhibiting the growth of all of five prostate cancer cell lines [8]: low micro-molar range; IC50s from one-day treatment versus 4 or 6 days treatment [8]: did not show significant difference
N[C@@H](Cc1ccc(N(CCCl)CCCl)cc1)C(=O)O [Melphalan, reference compound] | – | – | – | – | – | – | IC50 [1]: 31000 ± 4800 nM; IC50 [2]: 10300 ± 100 nM; IC50 [3]: 30.4 ± 3.1 µM; IC50 [4]: 16.2 ± 1.8 µM; IC50 [5]: 4000 ± 200 nM
